Measured values published in ChEMBL document CHEMBL3244320, “2-Acetylpyridine thiosemicarbazones. 1. A new class of potential antimalarial agents” (J Med Chem, 1979).
The source made the active and inactive calls. No cut-off for these calls is given here.

Columns and labels:
Plasmodium berghei [1] = assay: Antimalarial activity against Plasmodium berghei KBG 173 infected in ICR/HA Swiss mouse at 40 to 640 mg/kg, sc administered 72 hrs post infection; type: functional, organism-based
Plasmodium berghei [2] = assay: Antimalarial activity against Plasmodium berghei KBG 173 infected in ICR/HA Swiss mouse assessed as increase in mean survival time at 40 mg/kg, sc administered 72 hrs post infection; type: functional; details: route subcutaneous
Mus musculus [3] = assay: Toxicity in ICR/HA Swiss mouse infected with Plasmodium berghei KBG 173 assessed as mortality at 640 mg/kg, sc administered 72 hrs post infection measured for 6 days; type: organism-based; parameters: dose 640 mg/kg, route subcutaneous; details: in vivo, 144 h
Plasmodium berghei [4] = assay: Antimalarial activity against Plasmodium berghei KBG 173 infected in ICR/HA Swiss mouse assessed as curative effect at 320 mg/kg, sc administered 72 hrs post infection; type: functional, organism-based; parameters: dose 320 mg/kg
Plasmodium berghei [5] = assay: Antimalarial activity against Plasmodium berghei KBG 173 infected in ICR/HA Swiss mouse assessed as increase in mean survival time at 160 mg/kg, sc administered 72 hrs post infection; type: functional; details: route subcutaneous
Plasmodium berghei [6] = assay: Antimalarial activity against Plasmodium berghei KBG 173 infected in ICR/HA Swiss mouse assessed as increase in mean survival time at 80 mg/kg, sc administered 72 hrs post infection; type: functional; details: route subcutaneous
Plasmodium berghei [7] = assay: Antimalarial activity against Plasmodium berghei KBG 173 infected in ICR/HA Swiss mouse assessed as curative effect at 160 mg/kg, sc administered 72 hrs post infection; type: functional, organism-based; parameters: dose 160 mg/kg
Plasmodium berghei [8] = assay: Antimalarial activity against Plasmodium berghei KBG 173 infected in ICR/HA Swiss mouse assessed as increase in mean survival time at 320 mg/kg, sc administered 72 hrs post infection; type: functional; details: route subcutaneous
Plasmodium berghei [9] = assay: Antimalarial activity against Plasmodium berghei KBG 173 infected in ICR/HA Swiss mouse assessed as increase in mean survival time at 640 mg/kg, sc administered 72 hrs post infection; type: functional; details: route subcutaneous
Mus musculus [10] = assay: Toxicity in ICR/HA Swiss mouse infected with Plasmodium berghei KBG 173 assessed as mortality at 320 mg/kg, sc administered 72 hrs post infection measured for 6 days; type: organism-based; parameters: dose 320 mg/kg, route subcutaneous; details: in vivo, 144 h
Mus musculus [11] = assay: Toxicity in ICR/HA Swiss mouse infected with Plasmodium berghei KBG 173 assessed as mortality at 40 mg/kg, sc administered 72 hrs post infection measured for 6 days; type: organism-based; parameters: dose 40 mg/kg, route subcutaneous; details: in vivo, 144 h
Mus musculus [12] = assay: Toxicity in ICR/HA Swiss mouse infected with Plasmodium berghei KBG 173 assessed as mortality at 160 mg/kg, sc administered 72 hrs post infection measured for 6 days; type: organism-based; parameters: dose 160 mg/kg, route subcutaneous; details: in vivo, 144 h

Row | Structure (SMILES) | MST (Plasmodium berghei [2]) | MST (Plasmodium berghei [5]) | MST (Plasmodium berghei [6]) | MST (Plasmodium berghei [8]) | MST (Plasmodium berghei [9]) | also measured
1 | C/C(=N\NC(=S)NC12CC3CC(CC(C3)C1)C2)c1cccnc1 |  |  |  |  |  | Activity (Plasmodium berghei [1]): inactive
2 | C/C(=N\NC(=S)Nc1ccccn1)c1cccnc1 |  |  |  |  |  | Activity (Plasmodium berghei [1]): inactive
3 | Br.CCN(CC)CCCC(C)NC(=S)N/N=C(\C)c1ccccn1 (centres undefined) | 0.3 days |  |  |  |  | Activity (Mus musculus [3]): Toxic
4 | C/C(=N\NC(=S)Nc1cccc(F)c1)c1ccccn1 | 4.4 days | 6.6 days | 5.8 days |  |  | Activity (Plasmodium berghei [4]): Active
5 | C/C(=N\NC(=S)NCCO)c1ccccn1 | 0.3 days | 0.5 days |  |  |  | Activity (Mus musculus [3]): Toxic
6 | C/C(=N\NC(=S)NC1CCCCCCC1)c1ccccn1 | 1.1 days | 3.4 days | 1.2 days | 4.8 days | 10.7 days | Activity (Plasmodium berghei [7]): Active
7 | C/C(=N\NC(=S)Nc1ccccc1F)c1ccccn1 | 0 days | 6.8 days | 2.6 days |  |  | Activity (Plasmodium berghei [4]): Active
8 | CCN(CC)Cc1cc(NC(=S)N/N=C(\C)c2ccccn2)ccc1O.Cl.O | 2 days | 8.8 days | 5.6 days |  |  | Activity (Mus musculus [10]): Toxic
9 | C/C(=N\NC(=S)Nc1ccccc1)c1ccncc1 |  |  |  |  |  | Activity (Plasmodium berghei [1]): inactive
10 | C/C(=N\NC(=S)NC12CC3CC(CC(C3)C1)C2)c1ccncc1 |  |  |  |  |  | Activity (Plasmodium berghei [1]): inactive
11 | C/C(=N\NC(=S)Nc1ccccc1)c1cccnc1 |  |  |  |  |  | Activity (Plasmodium berghei [1]): inactive
12 | C/C(=N\NC(=S)NCc1ccc(C)cc1C)c1ccccn1 | 0.5 days | 3.1 days | 0.1 days | 6.1 days | 8.9 days | 
13 | C/C(=N\NC(=O)Nc1ccccc1)c1ccccn1 |  |  |  |  |  | Activity (Plasmodium berghei [1]): inactive
14 | Br.CCN(CC)CCNC(=S)N/N=C(\C)c1ccccn1 | 0.3 days | 0.5 days |  |  |  | Activity (Mus musculus [10]): Toxic; Activity (Mus musculus [3]): Toxic
15 | COc1ccccc1CNC(=S)N/N=C(\C)c1ccccn1 | 0.1 days | 1.3 days | 0.3 days | 3.5 days | 6.9 days | 
16 | C/C(=N\NC(=S)Nc1ccc(C)cc1)c1ccccn1 | 0.3 days | 4.5 days | 2.1 days |  |  | Activity (Plasmodium berghei [4]): Active
17 | C/C(=N\NC(=S)Nc1ccc(Cl)cc1)c1ccccn1 | 0.5 days | 1.7 days | 1.5 days | 4.3 days | 8.3 days | 
18 | CCc1ccccc1NC(=S)N/N=C(\C)c1ccccn1 | 0.3 days | 0.7 days | 0.3 days | 3.1 days | 5.1 days | 
19 | C/C(=N\NC(=S)Nc1ccccn1)c1ccncc1 |  |  |  |  |  | Activity (Plasmodium berghei [1]): inactive
20 | C/C(=N\NC(=S)NCc1ccc(Cl)cc1)c1ccccn1 | 0.5 days | 2.1 days | 0.5 days | 4.3 days | 6.9 days | 
21 | C/C(=N\NC(=S)NCc1ccccc1C)c1ccccn1 | 0.1 days | 5.9 days | 2.5 days | 7.7 days | 8.9 days | Activity (Plasmodium berghei [7]): Active
22 | C=CCNC(=S)N/N=C(\C)c1ccccn1 | 0.5 days | 3.1 days | 2.3 days | 3 days |  | Activity (Mus musculus [3]): Toxic
23 | Br.C/C(=N\NC(=S)NCC(C)N(C)C)c1ccccn1 (centres undefined) | 0.1 days |  |  |  |  | Activity (Mus musculus [3]): Toxic
24 | C/C(=N\NC(=S)Nc1cccc(Cl)c1)c1ccccn1 | 0.3 days | 2.5 days | 0.3 days | 5.1 days | 7.1 days | 
25 | COc1ccccc1NC(=S)N/N=C(\C)c1ccccn1 | 0.1 days | 2 days | 0.4 days | 4.6 days | 6.6 days | 
26 | C/C(=N\NC(N)=S)c1ccccn1 |  |  |  |  |  | Activity (Mus musculus [11]): Toxic; Activity (Mus musculus [12]): Toxic; Activity (Mus musculus [3]): Toxic
27 | COc1cccc(NC(=S)N/N=C(\C)c2ccccn2)c1 | 0.3 days | 8.1 days | 0.4 days | 4.3 days | 9.6 days | 
28 | COc1cccc(CNC(=S)N/N=C(\C)c2ccccn2)c1 | 0.3 days | 0.9 days | 0.3 days | 4.5 days | 5.9 days | 
29 | C/C(=N\NC(=S)Nc1ccccn1)c1ccccn1 | 1.5 days | 4.5 days | 2.7 days | 6.5 days | 8.1 days | 
30 | C/C(=N\NC(=S)Nc1cccc(C)c1)c1ccccn1 | 0.4 days | 7.4 days | 3 days | 10.3 days |  | Activity (Plasmodium berghei [4]): Active
